Laboratory results: ChEMBL document CHEMBL1201862, “PubChem BioAssay data set” (2004)
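Compound exposure: 48 hours, 5 concentrations, 96-well plates. GI50 is the concentration that inhibits growth by half.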 The source made the active and inactive calls. No stated cut-off is given here; in the data, active = GI50 up to about 1.1 µM and inactive = higher.

Assays:
Assay in all cases: inhibition of tumour cell growth, NCI panel, 48 h
MCF7 = system: MCF7
RXF 393 = system: RXF 393
SNB-75 = system: SNB-75
SK-OV-3 = system: SK-OV-3
BT-549 = system: BT-549
MDA-MB-231 = system: MDA-MB-231
M14 = system: M14
KM12 = system: KM12
CAKI-1 = system: CAKI-1
OVCAR-8 = system: OVCAR-8
UACC-257 = system: UACC-257
HCT-15 = system: HCT-15
SF-539 = system: SF-539
HCC 2998 = system: HCC 2998
HOP-62 = system: HOP-62
HL-60 = system: HL-60
Hs-578T = system: Hs-578T
U-251 = system: U-251
SK-MEL-2 = system: SK-MEL-2
TK-10 = system: TK-10
MOLT-4 = system: MOLT-4
RPMI-8226 = system: RPMI-8226
SF-295 = system: SF-295
OVCAR-5 = system: OVCAR-5
A498 = system: A498
A549 = system: A549
SW-620 = system: SW-620
NCI-H460 = system: NCI-H460
NCI-H226 = system: NCI-H226
LOX IMVI = system: LOX IMVI
Malme-3M = system: Malme-3M
ACHN = system: ACHN
PC-3 = system: PC-3
SNB-19 = system: SNB-19
CCRF-CEM = system: CCRF-CEM
HCT-116 = system: HCT-116
SN12C = system: SN12C
EKVX = system: EKVX
HOP-92 = system: HOP-92
OVCAR-4 = system: OVCAR-4
SF-268 = system: SF-268
NCI/ADR-RES = system: NCI/ADR-RES
786-0 = system: 786-0
MDA-MB-435 = system: MDA-MB-435
NCI-H522 = system: NCI-H522
SK-MEL-28 = system: SK-MEL-28
K562 = system: K562
IGROV-1 = system: IGROV-1
SK-MEL-5 = system: SK-MEL-5
UACC-62 = system: UACC-62
COLO 205 = system: COLO 205
HT-29 = system: HT-29
MDA-N = system: MDA-N
SR = system: SR
UO-31 = system: UO-31
DU-145 = system: DU-145
NCI-H23 = system: NCI-H23
OVCAR-3 = system: OVCAR-3

**Q.** How did the GI50 (MCF7) turn out when `N#Cc1c(-c2ccc(Cl)cc2)c(C#N)c(=O)n(NS(=O)(=O)c2ccccc2)c1O` was run?
**A.** 16.9 µM (inactive)

**Q.** And the GI50 (RXF 393)?
**A.** 21.8 µM (inactive)

**Q.** And the GI50 (SNB-75)?
**A.** 34 µM (inactive)

**Q.** What about the GI50 (SK-OV-3) of the same compound?
**A.** 21.5 µM (inactive)

**Q.** And the GI50 (BT-549)?
**A.** 13.4 µM (inactive)

**Q.** What about the GI50 (MDA-MB-231) of the same compound?
**A.** 23.3 µM (inactive)

**Q.** And the GI50 (M14)?
**A.** 29.6 µM (inactive)

**Q.** And the GI50 (KM12)?
**A.** 23.7 µM (inactive)

**Q.** What about the GI50 (CAKI-1) of the same compound?
**A.** 21 µM (inactive)

**Q.** And the GI50 (OVCAR-8)?
**A.** 28.8 µM (inactive)

**Q.** And the GI50 (UACC-257)?
**A.** 27.7 µM (inactive)

**Q.** And the GI50 (HCT-15)?
**A.** 22.3 µM

**Q.** And the GI50 (SF-539)?
**A.** 20.7 µM (inactive)

**Q.** What about the GI50 (HCC 2998) of the same compound?
**A.** 13.8 µM (inactive)

**Q.** And the GI50 (HOP-62)?
**A.** 27 µM (inactive)

**Q.** And the GI50 (HL-60)?
**A.** 16.1 µM (inactive)

**Q.** What about the GI50 (Hs-578T) of the same compound?
**A.** 19.7 µM (inactive)

**Q.** What about the GI50 (U-251) of the same compound?
**A.** 32.7 µM (inactive)

**Q.** And the GI50 (SK-MEL-2)?
**A.** 19.6 µM (inactive)

**Q.** What about the GI50 (TK-10) of the same compound?
**A.** 39.1 µM (inactive)

**Q.** What about the GI50 (MOLT-4) of the same compound?
**A.** 22.5 µM (inactive)

**Q.** And the GI50 (RPMI-8226)?
**A.** 6.44 µM (inactive)

**Q.** What about the GI50 (SF-295) of the same compound?
**A.** 30.1 µM (inactive)

**Q.** What about the GI50 (OVCAR-5) of the same compound?
**A.** 31 µM (inactive)

**Q.** What about the GI50 (A498) of the same compound?
**A.** 24.9 µM (inactive)

**Q.** And the GI50 (A549)?
**A.** 28.8 µM (inactive)

**Q.** And the GI50 (SW-620)?
**A.** 30.6 µM (inactive)

**Q.** And the GI50 (NCI-H460)?
**A.** 19.9 µM (inactive)

**Q.** And the GI50 (NCI-H226)?
**A.** 28.2 µM (inactive)

**Q.** And the GI50 (LOX IMVI)?
**A.** 15.1 µM (inactive)

**Q.** What about the GI50 (Malme-3M) of the same compound?
**A.** 49 µM (inactive)

**Q.** What about the GI50 (ACHN) of the same compound?
**A.** 25.9 µM (inactive)

**Q.** What about the GI50 (PC-3) of the same compound?
**A.** 19.6 µM (inactive)

**Q.** What about the GI50 (SNB-19) of the same compound?
**A.** 37 µM (inactive)

**Q.** What about the GI50 (CCRF-CEM) of the same compound?
**A.** 25.2 µM (inactive)

**Q.** And the GI50 (HCT-116)?
**A.** 16.2 µM (inactive)

**Q.** What about the GI50 (SN12C) of the same compound?
**A.** 13.6 µM (inactive)

**Q.** And the GI50 (EKVX)?
**A.** 28.1 µM (inactive)

**Q.** And the GI50 (HOP-92)?
**A.** 19.3 µM (inactive)

**Q.** And the GI50 (OVCAR-4)?
**A.** 27.1 µM (inactive)

**Q.** And the GI50 (SF-268)?
**A.** 35.6 µM (inactive)

**Q.** And the GI50 (NCI/ADR-RES)?
**A.** 35.3 µM (inactive)

**Q.** What about the GI50 (786-0) of the same compound?
**A.** 29.8 µM (inactive)

**Q.** What about the GI50 (MDA-MB-435) of the same compound?
**A.** 34.3 µM (inactive)

**Q.** And the GI50 (NCI-H522)?
**A.** 27.9 µM (inactive)

**Q.** And the GI50 (SK-MEL-28)?
**A.** 26.4 µM (inactive)

**Q.** What about the GI50 (K562) of the same compound?
**A.** 29.1 µM (inactive)

**Q.** What about the GI50 (IGROV-1) of the same compound?
**A.** 24.2 µM (inactive)

**Q.** What about the GI50 (SK-MEL-5) of the same compound?
**A.** 17.1 µM (inactive)

**Q.** What about the GI50 (UACC-62) of the same compound?
**A.** 15.1 µM (inactive)

**Q.** And the GI50 (COLO 205)?
**A.** 29.9 µM (inactive)

**Q.** What about the GI50 (HT-29) of the same compound?
**A.** 34.8 µM (inactive)

**Q.** What about the GI50 (MDA-N) of the same compound?
**A.** 19.8 µM (inactive)

**Q.** With `CC1=NC(=O)CNN1C1=NNC2(C(=O)N1)c1ccccc1-c1ccccc12` as the compound, how does the GI50 (MCF7) read?
**A.** > 100 µM (inactive)

**Q.** And the GI50 (RXF 393)?
**A.** > 100 µM (inactive)

**Q.** And the GI50 (SR)?
**A.** 55 µM (inactive)

**Q.** What about the GI50 (SNB-75) of the same compound?
**A.** > 100 µM (inactive)

**Q.** What about the GI50 (SK-OV-3) of the same compound?
**A.** > 100 µM (inactive)

**Q.** What about the GI50 (BT-549) of the same compound?
**A.** > 100 µM (inactive)

**Q.** And the GI50 (MDA-MB-231)?
**A.** > 100 µM (inactive)

**Q.** And the GI50 (M14)?
**A.** > 100 µM (inactive)

**Q.** And the GI50 (CAKI-1)?
**A.** > 100 µM (inactive)

**Q.** And the GI50 (OVCAR-8)?
**A.** > 100 µM (inactive)

**Q.** What about the GI50 (UACC-257) of the same compound?
**A.** > 100 µM (inactive)

**Q.** What about the GI50 (HCT-15) of the same compound?
**A.** > 100 µM

**Q.** What about the GI50 (SF-539) of the same compound?
**A.** > 100 µM (inactive)

**Q.** And the GI50 (HCC 2998)?
**A.** > 100 µM (inactive)

**Q.** What about the GI50 (UO-31) of the same compound?
**A.** > 100 µM (inactive)

**Q.** What about the GI50 (HOP-62) of the same compound?
**A.** > 100 µM (inactive)

**Q.** What about the GI50 (HL-60) of the same compound?
**A.** > 100 µM (inactive)

**Q.** What about the GI50 (Hs-578T) of the same compound?
**A.** 23.5 µM (inactive)

**Q.** And the GI50 (U-251)?
**A.** > 100 µM (inactive)

**Q.** And the GI50 (SK-MEL-2)?
**A.** > 100 µM (inactive)

**Q.** And the GI50 (TK-10)?
**A.** > 100 µM (inactive)

**Q.** What about the GI50 (SF-295) of the same compound?
**A.** > 100 µM (inactive)

**Q.** What about the GI50 (DU-145) of the same compound?
**A.** > 100 µM (inactive)

**Q.** And the GI50 (OVCAR-5)?
**A.** > 100 µM (inactive)

**Q.** What about the GI50 (A498) of the same compound?
**A.** > 100 µM (inactive)

**Q.** And the GI50 (A549)?
**A.** > 100 µM (inactive)

**Q.** And the GI50 (SW-620)?
**A.** > 100 µM (inactive)

**Q.** And the GI50 (NCI-H460)?
**A.** > 100 µM (inactive)

**Q.** And the GI50 (NCI-H226)?
**A.** > 100 µM (inactive)

**Q.** And the GI50 (LOX IMVI)?
**A.** > 100 µM (inactive)

**Q.** What about the GI50 (Malme-3M) of the same compound?
**A.** > 100 µM (inactive)

**Q.** What about the GI50 (ACHN) of the same compound?
**A.** > 100 µM (inactive)

**Q.** What about the GI50 (PC-3) of the same compound?
**A.** > 100 µM (inactive)

**Q.** What about the GI50 (SNB-19) of the same compound?
**A.** > 100 µM (inactive)

**Q.** And the GI50 (CCRF-CEM)?
**A.** > 100 µM (inactive)

**Q.** And the GI50 (HCT-116)?
**A.** > 100 µM (inactive)

**Q.** What about the GI50 (SN12C) of the same compound?
**A.** > 100 µM (inactive)

**Q.** And the GI50 (NCI-H23)?
**A.** > 100 µM (inactive)

**Q.** What about the GI50 (EKVX) of the same compound?
**A.** > 100 µM (inactive)

**Q.** And the GI50 (HOP-92)?
**A.** > 100 µM (inactive)

**Q.** What about the GI50 (OVCAR-4) of the same compound?
**A.** > 100 µM (inactive)

**Q.** And the GI50 (SF-268)?
**A.** > 100 µM (inactive)

**Q.** And the GI50 (NCI/ADR-RES)?
**A.** > 100 µM (inactive)

**Q.** What about the GI50 (786-0) of the same compound?
**A.** > 100 µM (inactive)

**Q.** And the GI50 (MDA-MB-435)?
**A.** > 100 µM (inactive)

**Q.** And the GI50 (NCI-H522)?
**A.** > 100 µM (inactive)

**Q.** And the GI50 (SK-MEL-28)?
**A.** > 100 µM (inactive)

**Q.** What about the GI50 (K562) of the same compound?
**A.** > 100 µM (inactive)

**Q.** And the GI50 (OVCAR-3)?
**A.** > 100 µM (inactive)

**Q.** What about the GI50 (IGROV-1) of the same compound?
**A.** > 100 µM (inactive)

**Q.** And the GI50 (SK-MEL-5)?
**A.** > 100 µM (inactive)

**Q.** And the GI50 (UACC-62)?
**A.** > 100 µM (inactive)

**Q.** What about the GI50 (COLO 205) of the same compound?
**A.** > 100 µM (inactive)

**Q.** And the GI50 (HT-29)?
**A.** > 100 µM (inactive)

**Q.** And the GI50 (MDA-N)?
**A.** > 100 µM (inactive)
